hEAAT2 promoter activity data for 1 molecule are collected here from patent US20060127980A1, “Human excitatory amino acid transporter-2 gene promoter and uses thereof” (priority 2003, published 2006).

This test has as its system hEAAT2 promoter. In words: hEAAT2 promoter luciferase assay of agents in H4 glioma cells (FIG. 12). Type of test: cell-based, human. The following applies: H4 malignant glioma cells; 10 μM. Here is the method: (§1) FIG. 12. Effect of various agents on hEAAT2 promoter activity in H4 human malignant glioma cells. A: ceftriaxone; B: amoxicillin; C: chloramphenicol; D: thiamphenicol; E: vancomycin; F: glycine; G: glutamate; H: DMSO; I: dibutyryl cAMP. H4 is a rare clone of malignant glioma cells that support hEAAT2 promoter activity. H4 cells were seeded at 5×10^4 cells/35-mm plate. Twenty-four h later cells were untreated (CON) or received the indicated compound at a final concentration of 10 μM. Forty-eight h later the cells were transfected with a FL pGL3/EAAT2 luciferase reporter construct (5 μg) plus a pSVβGalactosidase construct (1 μg) using the calcium phosphate precipitation method (Su et al. 2003, Proc. Natl. Acad. Sci. USA 100:1955-1960). After an additional 48 h, cell lysates were prepared and luciferase activity was determined using the Luciferase Assay System Kit (Promega, E1501) and luminescence determined using a luminometer (Turner Designs, TD20/20) (Su et al. 2003, Proc. Natl. Acad. Sci. USA 100:1955-1960). Data presented are the average of 3 independent plates±S.D. Qualitatively similar results were obtained in 2 additional experiments.
as §1, with “H4, the third cell line examined,” for “FIG. 12. Effect of various agents on hEAAT2 promoter activity in H4 human malignant glioma cells. A: ceftriaxone; B: amoxicillin; C: chloramphenicol; D: thiamphenicol; E: vancomycin; F: glycine; G: glutamate; H: DMSO; I: dibutyryl cAMP. H4”, “activity. In the studies shown in FIG. 12,” for “activity.”

Each structure is given as a SMILES string.

As to `CCCC(=O)Nc1ncnc2c1ncn2[C@@H]1O[C@@H]2COP(=O)(O)O[C@H]2[C@H]1OC(=O)CCC` [dbcAMP, dibutyryl cyclic AMP], the hEAAT2 promoter activity entry is “potent stimulators”.
